Assay results published in US20070037873A1, “Airway remodeling treatments” (priority 2005, published 2007).

Experiments:
[1] = test system: MMP-1; experiment: MMP-1 mRNA Northern blot in stimulated FLS cells; format: cell-based, human; details: FLS treated 60 minutes with AjA, then 10 ng/mL TNFα+1 ng/mL GMCSE for 4 hours; FIG. 4
Experimental: Human fibroblast-like synovial cells (FLS) were obtained from synovial tissue or synovial fluid, and grown to confluence in 6 well tissue culture plates. Cells were treated or not for 60 minutes with AjA, then stimulated with 10 ng/mL TNFα+1 ng/mL GMCSE for 4 hours. MMP-1 mRNA content measured by Northern blot analysis.
Cells were harvested and resuspended in TRIZOL® solution (GIBCO-BRL) to extract total cellular RNA. The RNA was resuspended in diethylpyrocarbonate (DEPC)-treated water. Total RNA (15 μg) was separated by electrophoresis in 1% agarose/17.6% formaldehyde gels. The RNA was transferred overnight from the denaturing gel onto Hybond-N^+ (Amersham Pharmacia Biotech Inc., Piscataway, N.J.) by capillary action using […] buffer ([…]). The RNA was cross-linked to the filter by ultraviolet irradiation for 20 seconds using a UV Crosslinker (Spectronics Corporation, Westbury, N.Y.) and the blots were hybridized with a solution of 5×SSC, 5× Denhardt's solution, 0.5% SDS, and 10 mg/ml sonicated salmon sperm DNA for 5 hours at 65° C., and 10^7 cpm/ml radio-labeled cDNA generated by random priming with ^32P-dCTP ([…], NEN, Boston, Mass.). Probes specific for the MMP-1 gene were heat denatured and added to the prehybridization buffer for hybridization overnight at 65° C. […]

[2] = test system: Human airway smooth muscle (ASM) cells; experiment: Human ASM cell proliferation (MTT) after TNF-α stimulation; format: cell-based; details: ajulemic acid 0-30 μmoles, 60 minutes, then 1 ng/ml TNF-α for 48 hours, FIG. 1
Experimental: Human airway smooth muscle (ASM) (also known as human bronchial smooth muscle (HBSM)) cells were obtained cryopreserved from Cambrex Bio Science (Walkersville, Md.) at passage 3. See, Ethier and Madison, Cell Calcium, 32:31-38 (2002) and Zhong et al., Am. J Respir Cell Mol. Biol., 30:118-125 (2004). Cultures were characterized as smooth muscle cells by positive immunostaining for smooth muscle actin and negative for Factor VIII. Cells were seeded and grown in smooth muscle basal medium (SMBM, Cambrex Bio Science) supplemented with 5% fetal bovine serum, 5 μg/ml insulin, 0.5 ng/ml epidermal growth factor, 2 ng/ml fibroblast growth factor, gentamicin, and amphotericin. Cells were maintained at 37° C. in a humidified atmosphere (5% CO2), fed every 48 hours, and passaged when confluent. Shortly after passaging, ajulemic acid (synthesized by Organix, Inc., Woburn, Mass.) was added to growth media to a concentration of 0-30 μmoles. Cells were incubated for 60 minutes, and then stimulated with 1 ng/ml TNF-α for 48 hours. After 48 hours, cell proliferation was evaluated using the Cell Proliferation Kit I (MTT) from Roche Diagnostics (Indianapolis, Ind.), which provides a measure of cell number as a function of optical density.

[3] = test system: IK-B; experiment: Western blot of IK-B phosphorylation in TNF-α stimulated FLS cells; format: cell-based, human; details: FIG. 3
Experimental: FLS cells were collected from human synovial fluid in heparinized syringes, then centrifuged at 1200 rpm (260 g) for 15 minutes. FLS cells are used herein as models of pulmonary fibroblasts and/or myofibroblasts. The resulting cell pellet was resuspended in 7 ml of growth medium (Dulbecco's Minimal Essential Medium with 15% heat-inactivated fetal bovine serum (FBS), 1% nonessential amino acids, 1% penicillin/streptomycin solution) and plated in 25 ml tissue culture flasks. Cultures were incubated at 37° C., under 5% CO2 for 24 to 48 hours after which medium was aspirated and cultures were washed with PBS to remove nonadherent cells. Growth medium was replaced every 3 to 4 days. After 10 to 14 days, adherent cells were harvested by trypsinization, washed, and transferred to 6-well tissue culture plates in fresh growth medium. FLS cells were passaged (split 1:3) at confluence, generally every 10 to 14 days.
FLS cells at passage 2 through 6 were (i) untreated, (ii) treated with 1-30 μM of ajulemic acid in growth media, (iii) treated with 1 ng/ml of TNF-α in growth media, or (iv) treated with a combination of 1-30 μM of ajulemic acid and 1 ng/ml TNF-α for 10 minutes or 45 minutes. Cells were harvested and washed several times with PBS. Whole cell lysates were prepared in hypotonic HEPES buffer (7.45 g KCl/100 ml H2O; 3.80 g EGTA/100 ml H2O;0.87 g PMSF/500 ml H2O; 1.54 g DTT/10 ml H2O). […]

[4] = test system: human ASM cells; experiment: Fura-2 calcium transients in agonist-stimulated ASM cells; format: cell-based; details: ajulemic acid 10 μM or 20 μM for 10 minutes, F340/F380 ratio, p<0.01 versus control
Experimental: Human airway smooth muscle (ASM) cells were obtained and passaged as described in Example 1. Subconfluent ASM cells in 96-well plates were washed 3 times in a modified Kreb-Ringer-Henseleit solution (KRH) containing 115 mM NaCl, 5 mM KCl, 1 mM KH2PO4, 1 mM MgSO4, 25 mM N-2-hydroxyethylpiperazine-N′-2-ethanesulfonic acid (HEPES), 15 mM glucose and 2 mM CaCl2. Cells were incubated in 1.0 μM fura 2-AM and pluronic F-127 (0.004%) for 60 minutes at room temperature. See, e.g., Wang et al., Am. J. Phys.; 272:C1151-C1159, 1997. After washing 3 times with KRH, cells were covered with 200 μl KRH and placed on the microscope stage. Reagents were added directly to the wells during calcium recordings. Fura 2-AM and F-127 were from Molecular Probes, Inc. (Eugene, Oreg.). Other chemicals were from Sigma (St. Louis, Mo.).
Fluorescence was induced using computer-controlled 337 and 380 nm UV light generated by a nitrogen laser and a nitrogen laser-pumped dye laser, respectively (Laser Science, Franklin, Mass.). See, e.g., Ethier et al., Cell Calcium, 32:31-38 2002. […]
Background from a cell free region of the cover glass was subtracted prior to data acquisition and then an 11×11 pixels area was selected over each cell. […] Fluorescence emissions stimulated by alternating pulses of ˜340 and 380 nm light were recorded and their ratios plotted. […]

[5] = test system: NF-KB; experiment: EMSA of NF-KB binding in nuclear extracts of FLS cells; format: cell-based, human; details: 10 μM ajulemic acid for 1 hour
Text: Human fibroblast-like synovial (FLS) cells were isolated from synovial tissue or synovial fluid of patients with inflammatory arthritis (4 RA, 1 psoriatic arthritis) essentially as described (Stebulis et al., J. Rheumatol. 32:301-06, 2005). Briefly, synovial tissue obtained at the time of joint replacement surgery was minced and plated in tissue culture dishes with growth medium (MEM with 15% FBS, 1% penicillin/streptomycin solution, 1% nonessential amino acids). Synovial fluid was collected in heparinized syringes, then centrifuged at 1200 rpm for 15 min. The cell pellet was resuspended in growth medium, then plated in tissue culture flasks. After 2-4 days, primary cultures were washed with PBS to remove tissue fragments and nonadherent cells. FLS were incubated at 37° C. under 5% CO2 and passaged to 6-well tissue culture plates (split 1:3) when they reached confluence. Passages 2 through 8 were used for experiments.
Experiments were done on FLS rested overnight in low serum medium (MEM/2% FBS). Medium was replaced before beginning the experiments. Cells were treated with 10 μM ajulemic acid for 1 hour then stimulated with 1 ng/ml TNF-α or left unstimulated. Controls were vehicle (0.3% DMSO) treated cells. […] Gels were scanned and analyzed using ADOBE® software for PC.

## CCCCCCC(C)(C)c1cc(O)c2c(c1)OC(C)(C)[C@@H]1CC=C(C(=O)O)C[C@@H]21 [ajulemic acid, 1′,1′dimethylheptyl-Δ8-THC-11-oic acid]
[1]
  MMP-1 expression (mRNA, Northern blot): downregulates MMP-1 expression in a dose-dependent manner
[2]
  human ASM cell proliferation: suppressed human ASM cell proliferation in a dose-dependent manner
[3]; 1-30 μM ajulemic acid with 1 ng/ml TNF-α, after 45 minutes
  expression of the non-phosphorylated form of IK-B: dramatically increased expression of the non-phosphorylated form of IK-B
[3]; 1-30 μM ajulemic acid, 10 minutes after stimulation with 1 ng/ml TNF-α
  phosphorylation of IK-B (phosphor-IK-B): prevented phosphorylation of IK-B
[4]; histamine
  calcium transients, histamine stimulated: suppressed calcium transients
[4]; thrombin
  calcium transients, thrombin stimulated: suppressed calcium transients
[5]; then 1 ng/ml TNF-α, extracts 45 minutes after stimulation, lane 4 vs. lane 3
  reduction of TNF-α induced NF-KB activation (binding to oligonucleotide corresponding to an NF-KB binding site): approximately 75%
[5]; unstimulated FLS, EMSA, lane 2 vs. lane 1
  nuclear binding of NF-KB in resting FLS: not altered
